# Laboratory results as given in patent US10287305B2, “Substituted piperidine compound and use thereof” (Takeda Pharmaceutical Company Limited, priority 2016, dated 2019).
# Target: human orexin type 2 receptor (hOX2R) (Homo sapiens (Human), UniProt O43614)
# Assay: Measurement of orexin type 2 receptor agonist activity (Experimental Example 2-1, FLIPR TETRA, intracellular Ca2+)
# Format: cell-based
# Details: CHO dhfr- cells expressing hOX2R; for Emax at 30 µM: value at 30 uM concentration, orexin B as full agonist = 100%
# [1] = agonist activity, 10 nM human orexin B = 100%
# human orexin type 2 receptor (hOX2R), sequence (O43614 whole entry): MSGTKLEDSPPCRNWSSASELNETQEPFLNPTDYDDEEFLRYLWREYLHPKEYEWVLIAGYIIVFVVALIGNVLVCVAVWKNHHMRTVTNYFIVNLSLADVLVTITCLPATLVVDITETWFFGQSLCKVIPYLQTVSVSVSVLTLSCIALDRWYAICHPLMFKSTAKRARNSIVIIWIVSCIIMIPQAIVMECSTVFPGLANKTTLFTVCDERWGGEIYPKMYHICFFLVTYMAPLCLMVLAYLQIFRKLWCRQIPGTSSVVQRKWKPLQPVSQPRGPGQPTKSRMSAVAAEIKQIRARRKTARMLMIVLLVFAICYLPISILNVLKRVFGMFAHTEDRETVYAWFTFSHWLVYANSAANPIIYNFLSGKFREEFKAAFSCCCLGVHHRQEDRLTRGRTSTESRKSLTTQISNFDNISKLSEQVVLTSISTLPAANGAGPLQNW
Compound,EC50 [1] [nM],Emax at 30 µM [%],"EC50 (FLIPR TETRA, Fluo-4AM) [nM]","Emax (FLIPR TETRA, Fluo-4AM, read-out: Emax (%)) [%]"
"CS(=O)(=O)N[C@H]1CCCN[C@H]1CO[C@H]1CC[C@@H](c2c(F)ccc(F)c2F)CC1 [Example 21, N-((2R,3S)-2-(((cis-4-(2,3,6-trifluorophenyl)cyclohexyl)oxy)methyl)piperidin-3-yl)methanesulfonamide]",200,108,–,–
"CC(=O)N1CCC[C@H](NS(C)(=O)=O)[C@@H]1CO[C@H]1CC[C@@H](c2c(F)ccc(F)c2F)CC1 [Example 22, N-((2R,3S)-1-acetyl-2-(((cis-4-(2,3,6-trifluorophenyl)cyclohexyl)oxy)methyl)piperidin-3-yl)methanesulfonamide]",5.3,98,–,–
"CS(=O)(=O)N[C@H]1CCCN[C@H]1CO[C@H]1CC[C@@H](c2ccccc2C(F)(F)F)CC1 [Example 23, N-((2R,3S)-2-(((cis-4-(2-(trifluoromethyl)phenyl)cyclohexyl)oxy)methyl)piperidin-3-yl)methanesulfonamide]",1200,90,–,–
"CC(=O)N1CCC[C@H](NS(C)(=O)=O)[C@@H]1CO[C@H]1CC[C@@H](c2ccccc2C(F)(F)F)CC1 [Example 24, N-((2R,3S)-1-acetyl-2-(((cis-4-(2-(trifluoromethyl)phenyl)cyclohexyl)oxy)methyl)piperidin-3-yl)methanesulfonamide]",21,102,–,–
"CS(=O)(=O)N[C@H]1CCCN(C(=O)CO)[C@H]1CO[C@H]1CC[C@@H](c2cccc(F)c2F)CC1 [Example 25, N-((2R,3S)-2-(((cis-4-(2,3-difluorophenyl)cyclohexyl)oxy)methyl)-1-glycoloylpiperidin-3-yl)methanesulfonamide]",7.9,94,–,–
"COc1ccccc1[C@H]1CC[C@@H](OC[C@@H]2NCCC[C@@H]2NS(C)(=O)=O)CC1 [Example 27, N-((2R,3S)-2-(((cis-4-(2-methoxyphenyl)cyclohexyl)oxy)methyl)piperidin-3-yl)methanesulfonamide]",310,108,–,–
"COc1ccccc1[C@H]1CC[C@@H](OC[C@H]2[C@@H](NS(C)(=O)=O)CCCN2C(=O)C2CC2)CC1 [Example 28, N-((2R,3S)-1-(cyclopropylcarbonyl)-2-(((cis-4-(2-methoxyphenyl)cyclohexyl)oxy)methyl)piperidin-3-yl)methanesulfonamide]",2.7,96,–,–
"CC(C)OC(=O)N1CCC[C@H](NS(=O)(=O)N(C)C)[C@@H]1COC1CCN(c2ncccn2)CC1 [Example 29, isopropyl (2R,3S)-3-((dimethylsulfamoyl)amino)-2-(((1-(pyrimidin-2-yl)piperidin-4-yl)oxy)methyl)piperidine-1-carboxylate]",17,104,–,–
"CS(=O)(=O)N[C@H]1CCCN(C(=O)C2CC2)[C@H]1CO[C@H]1CC[C@@H](c2ccccc2)CC1 [Example 31, N-((2R,3S)-1-(cyclopropylcarbonyl)-2-(((cis-4-phenylcyclohexyl)oxy)methyl)piperidin-3-yl)methanesulfonamide]",0.66,95,–,–
"COC(=O)N1CCC[C@H](NS(C)(=O)=O)[C@@H]1CO[C@H]1CC[C@@H](c2ccccc2C(F)(F)F)CC1 [Example 32, methyl (2R,3S)-3-((methylsulfonyl)amino)-2-(((cis-4-(2-(trifluoromethyl)phenyl)cyclohexyl)oxy)methyl)piperidine-1-carboxylate]",15,102,–,–
"CCS(=O)(=O)N[C@H]1CCCN(C(C)=O)[C@H]1CO[C@H]1CC[C@@H](C(C)C)CC1 [Example 33, N-((2R,3S)-1-acetyl-2-(((cis-4-isopropylcyclohexyl)oxy)methyl)piperidin-3-yl)ethanesulfonamide]",68,98,–,–
"CC(=O)N1CCC[C@H](NS(C)(=O)=O)[C@@H]1CO[C@H]1CC[C@@H](C(C)C)CC1 [Example 70, N-((2R,3S)-1-acetyl-2-(((cis-4-isopropylcyclohexyl)oxy)methyl)piperidin-3-yl)methanesulfonamide]",97,98,–,–
"CC(=O)N1CCC[C@H](NS(C)(=O)=O)[C@@H]1CO[C@H]1CC[C@@H](C2CCCCC2)CC1 [Example 71, N-(cis-1-acetyl-2-(((1s,4s)-1,1′-bi(cyclohexyl)-4-yloxy)methyl)piperidin-3-yl)methanesulfonamide]",4300,83,–,–
"CC(C)[C@H]1CC[C@@H](OC[C@H]2[C@@H](NS(C)(=O)=O)CCCN2C(=O)COc2ccn(C)n2)CC1 [Example 84, N-((2R,3S)-2-(((cis-4-isopropylcyclohexyl)oxy)methyl)-1-(((1-methyl-1H-pyrazol-3-yl)oxy)acetyl)piperidin-3-yl)methanesulfonamide]",840,98,–,–
"CC(C)[C@H]1CC[C@@H](OC[C@H]2[C@@H](NS(C)(=O)=O)CCCN2C(=O)C2CCC(=O)N2)CC1 (stereo partly drawn) [Example 87, N-(cis-2-(((cis-4-isopropylcyclohexyl)oxy)methyl)-1-(5-oxoprolyl)piperidin-3-yl)methanesulfonamide]",4900,82,–,–

# The remaining lines, values ahead:
EC50 [1] [nM],Emax at 30 µM [%],"EC50 (FLIPR TETRA, Fluo-4AM) [nM]","Emax (FLIPR TETRA, Fluo-4AM, read-out: Emax (%)) [%]",Compound
39,89,–,–,"CC(C)[C@H]1CC[C@@H](OC[C@H]2[C@@H](NS(C)(=O)=O)CCCN2C(=O)C2CC(=O)C2)CC1 [Example 91, N-((2R,3S)-2-(((cis-4-isopropylcyclohexyl)oxy)methyl)-1-((3-oxocyclobutyl)carbonyl)piperidin-3-yl)methanesulfonamide]"
370,92,–,–,"CC(C)[C@H]1CC[C@@H](OC[C@H]2[C@@H](NS(C)(=O)=O)CCCN2C(=O)C2CC(O)C2)CC1 (stereo partly drawn) [Example 92, N-((2R,3S)-1-((3-hydroxycyclobutyl)carbonyl)-2-(((cis-4-isopropylcyclohexyl)oxy)methyl)piperidin-3-yl)methanesulfona]"
1.2,101,–,–,"CNC(=O)N1CCC[C@H](NS(C)(=O)=O)[C@@H]1CO[C@H]1CC[C@@H](C(C)C)CC1 [Example 102, (2R,3S)-2-(((cis-4-isopropylcyclohexyl)oxy)methyl)-N-methyl-3-((methylsulfonyl)amino)piperidine-1-carboxamide]"
170,98,–,–,"[2H]C1C([2H])[C@]([2H])(C(C)C)C([2H])C([2H])[C@]1([2H])OC[C@H]1[C@@H](NS(C)(=O)=O)CCCN1C(C)=O (stereo partly drawn) [Example 103, N-(cis-1-acetyl-2-(((cis-4-isopropyl(1,2,3,4,5,6-d6)cyclohexyl)oxy)methyl)piperidin-3-yl)methanesulfonamide]"
2.2,100,–,–,"[2H]C1C([2H])[C@]([2H])(C(C)C)C([2H])C([2H])[C@]1([2H])OC[C@H]1[C@@H](NS(C)(=O)=O)CCCN1C(=O)NCC (stereo partly drawn) [Example 104, cis-N-ethyl-2-(((cis-4-isopropyl(1,2,3,4,5,6-d6)cyclohexyl)oxy)methyl)-3-((methylsulfonyl)amino)piperidine-1-carboxamide]"
–,–,10,100,"CC(=O)N1CCC[C@H](NS(C)(=O)=O)[C@@H]1CO[C@H]1CC[C@@H](c2cccc(F)c2)CC1 [Example 147, N-((2R,3S)-1-acetyl-2-(((cis-4-(3-fluorophenyl)cyclohexyl)oxy)methyl)piperidin-3-yl)methanesulfonamide]"
